Data published in patent publication EP1383510B1, “BISPHOSPHONATE CONJUGATES AND METHODS OF MAKING AND USING THE SAME” (priority 2001, dated 2002).

Columns and labels:
[1] = Binding of novel bisphosphonate conjugates on hydroxyapatite powder (UV spectra before/after treatment); conditions: pH 7.0
Protocol: To estimate the binding of NBC on hydroxyapatite (the mineral component of bone) UV spectra of NBC at pH7 were recorded before and after treatment with hydroxyapatite. […] The supernatant was separated and an absorption spectrum of the supernatant was recorded.

[2] = Biodistribution in rats of vitamin B6 - bisphosphonate conjugates in complex with 99mTc; assay type: in vivo; conditions: as complexing agent of the bone-scanning agent; general statement
Protocol: The probes were prepared with molar concentration of about 10^-3 molar at pH 6.5, with a molar ratio SnCl2 to a conjugate 1:10 and 1 m^cl/ml pertechnetate.
Male rats weighting […] were injected intravenously via the tail vein. The rats were sacrificed and dissected at selected times - 30 min., 60 min., and 120 min. The activity uptake in bone, blood, muscle, liver and spleen of each rat was measured. The results obtained indicate 40-45% of initial radioactivity injected was accumulated at bone skeleton after 60-90 min.

[3] = HPLC-analysis of hydrolytic stability of nucleotide-bisphosphonate conjugate in buffer; assay type: physicochemical
Protocol: (§1) HPLC-analysis of hydrolytic stability of conjugate VI, Fig. 2, in buffer and in human serum was carried out under the following conditions: column Nucleosil C-18 (30-C18), 0-4% triethylammonium acetate (0.1 M, pH6.8); 20 min, flow rate -1 ml/min. […] The stability of the conjugate was decreased in mouse/human serum as it is evidenced from data on Fig.3. However, the conjugate is stable enough to be delivered to a skeleton in intact form.

[4] = HPLC-analysis of stability of nucleotide-bisphosphonate conjugate in serum; assay type: in vitro ADME; conditions: mouse/human serum; Fig.3
Protocol: as §1

SMILES	% of bound compound [1]	% of nonbound compound [1]	uptake in bone [2]	hydrolytic stability (stable for several hours) ([3]; buffer solution at pH 5-7, several hours)	stability of the conjugate in serum [4]	hydrolytic stability of the P-O-P bond ([3]; incubation either at pH >8.0 or at pH<3.0)
Cc1ncc(COP(=O)(O)O)c(CNCCC(O)(P(=O)(O)O)P(=O)(O)O)c1O [(i), 3 - (N-[5 '-phospho] -pyridoxylamino) -1-hydroxypropyliden-1,1-bisphosphonic acid]	100%	0%	–	–	–	–
Cc1ncc(CO)c(CNCCC(O)(P(=O)(O)O)P(=O)(O)O)c1O [(ii), 3-(N-pyridoxylamino) -1-hydroxypropyliden-1,1-bisphosphonic acid]	100%	0%	high and rapid uptake in bone	–	–	–
Cc1ncc(COP(=O)(O)O)c(CNC(P(=O)(O)O)P(=O)(O)O)c1O [(iii), 1 - (N-[5 '-phospho] -pyridoxylamino)-methylene-1,1-bisphosphonic acid]	100%	0%	–	–	–	–
Cc1ncc(CO)c(CNC(P(=O)(O)O)P(=O)(O)O)c1O [(iv), 1 -(N-pyridoxyl amino) -methylen-1, 1 -bisphosphonic acid]	100%	0%	–	–	–	–
O=c1[nH]c(=O)n(COCCOCCOP(=O)(O)CP(=O)(O)O)cc1F [II, Anhydride of 1-([2-{hydroxyethoxy}ethoxy]methylene)-5-fluorouracil and methylenediphosphonic acid]	87,26%	12,74%	–	–	–	–

Second part, led by results:

% of bound compound [1]	% of nonbound compound [1]	uptake in bone [2]	hydrolytic stability (stable for several hours) ([3]; buffer solution at pH 5-7, several hours)	stability of the conjugate in serum [4]	SMILES	hydrolytic stability of the P-O-P bond ([3]; incubation either at pH >8.0 or at pH<3.0)
70,05%	–	–	–	–	O=c1[nH]c(=O)n(C2OC(COP(=O)(O)OP(=O)(O)CP(=O)(O)O)C(O)C2O)cc1F (stereo not shown) [III, Anhydride of 5-fluorouridine-5'-monophosphoric acid and methylenediphosphonic acid]	–
69,66%	30,34%	–	more than 97%	decreased	CC(O)(P(=O)(O)O)P(=O)(O)OP(=O)(O)OCC1OC(n2cc(F)c(=O)[nH]c2=O)C(O)C1O (stereo not shown) [VI, Anhydride of 5-fluorouridine-5'-monophosphoric acid and 1-hydroxyethylidene-1,1-bisphosphonic acid]	Hydrolytic cleavage of the conjugate P-O-P bond occurred
88,68%	11,32%	–	–	–	CC(O)(P(=O)(O)O)P(=O)(O)OP(=O)(O)OCC1OC(n2ccc(=O)[nH]c2=O)C(O)C1O (stereo not shown) [VII, Anhydride of uridine-5 '-monophosphoric acid and 1-hydroxyethylidene-1,1 diphosphonic acid]	–
